Experimental data as given in paper PMC7253723, “Chain-End Modifications and Sequence Arrangements of Antimicrobial Peptoids for Mediating Activity and Nano-Assembly” (Frontiers in Chemistry, 2020).
Where “and” joins values, the source holds several entries; their conditions need not be identical. Equal values may be shown once. Read-outs that look alike come from different tables or passages of the source. Square brackets hold non-standard residues; d marks the D form. Peptide text beside a SMILES is read from it. * marks the point of attachment. N(1-naphthylmethyl)Gly = O=C(O)CNCc1cccc2ccccc12; N(4-MeBn)Gly = Cc1ccc(CNCC(=O)O)cc1; Palmitoyl = CCCCCCCCCCCCCCCC(=O)*; Nspe = C[C@H](NCC(=O)O)c1ccccc1; Lauroyl = CCCCCCCCCCCC(=O)*; Nonanoyl = CCCCCCCCC(=O)*; AEEA = NCCOCCOCC(=O)O; NBuGly = CCCCNCC(=O)O; Nlys = NCCCCNCC(=O)O

Tests used:
[1] = Critical aggregation concentration (CAC) Nile red fluorescence assay; type: physicochemical; conditions: room temperature
Protocol: Nile red (NR) fluorescence was used to measure critical aggregation concentration (CAC) for the synthesized lipopeptoids. Lipopeptoids were dissolved at 2.5 × 10^−2 to 1 wt.% in a dilute solution of Nile red (0.25 μg/100 mL, i.e. ~10 nM concentration) prepared in water. NR was excited at 552 nm and emission was recorded at room temperature in the range 550–750 nm using a 10.0 × 5.0 mm^2 quartz cell (Jasco spectrofluorimeter FP-6500). The intensity of the peak centered around 610 nm is shown in the data presented in Section results and discussion.
We first examined with a CAC assay whether coupling a hydrophobic tail to AMPMs and inserting the kk and EG2 components is a viable design for generating self-assembling lipopeptoids. The CAC measures the concentration above which hydrophobic pockets (e.g., lipophilic cores of micelles) are formed, and lower CACs indicate higher propensities of self-assembly. In our experiments, the CAC is indicated by an inflection in the increase in emission intensity of a lipophilic fluorophore tracer (Nile Red) that emits more strongly when partitioned into hydrophobic lower dielectric environments (see Figure S6 for an example analysis).

[2] = test system: Pseudomonas aeruginosa (PA01); type: cell-based
Protocol: (§1) Technical triplicates (n = 3) or more of samples at each concentration were analyzed.

[3] = test system: Escherichia coli (ATCC 25922); type: cell-based
Protocol: as §1

[4] = test system: Staphylococcus aureus (NCTC 4135); type: cell-based
Protocol: as §1

[5] = Analytical RP-HPLC elution (ACN %) as measure of hydrophobicity; type: physicochemical; conditions: chromatographic, C18 column (250 × 4.6 mm Nucleosil), 30 min gradient 5–95% ACN in water with 0.1% TFA, 1 mL/min, used as measure of hydrophobicity
Protocol: Peptoids were synthesized on resin manually or with an automated synthesizer (Prelude X, Gyros Protein Technologies) using a solid phase “submonomer” approach (Zuckermann et al., [1992]; Lau, [2014]; Lau et al., [2017]). Briefly, the Fmoc protected rink amide resin was deprotected with 20% piperidine for 20 min, applied twice. Each residue was added by treatment to a mixture of bromoacetic acid (20 times excess) and diisopropyl-carbodiimide (18.5 times excess) for 15 min, followed by a halo-substitution reaction with appropriate primary amine submonomers. For the attachment of a di ethylene glycol linker, Fmoc-amino-3,6 dioxaoctanoic acid (1.8 mmol), and equivalent moles of HBTU ((2-(1H-benzotriazol-1-yl)-1,1,3,3-tetramethyluronium hexafluorophosphate) were reacted with the terminal amino group in the presence of N,N-diisopropylethylamine (DIPEA, 2.7 mmol). This reaction was carried out for 2 h at 37°C and repeated a second time for 4 h, to ensure coupling. Like resin Fmoc deprotection, EG2 N-terminal Fmoc deprotection was achieved using 20% piperidine for 20 min, applied twice. Different chain lengths of saturated fatty acids, i.e., pelargonic acid (C8), lauric acid (C11), and palmitic acid (C15) were subsequently coupled using the HBTU amide coupling as reported previously (Lau et al., [2017]). After solid phase synthesis, the resin was cleaved and side chains were deprotected for 30 min using a standard TFA:TIPS:H2O cocktail (95:2.5:2.5 v/v/v). Excess TFA was removed using a rotary evaporator and the peptoid was precipitated from the oily product using diethyl ether. The collected material was dissolved in small amounts of 1:1 acetonitrile:water (ACN:H2O) to ease sample transfer, and further dried in a lyophilizer. Dried crude products were weighed and dissolved in ACN-H2O mixtures for preparative RP-HPLC (Dionex Ultimate 3000) with a C18 column (250 × 10 mm Phenomenex Jupiter). Fractions containing the pure product were identified by ESI-LC-MS (Agilent 1200 with a Poroshell C18 column coupled to an Agilent 6130 mass spectrometer) and by analytical RP-HPLC (Dionex P680) using a C18 column (250 × 4.6 mm “Nucleosil”) with a 30 min gradient of 5–95% acetonitrile (ACN) in water containing 0.1% TFA at 1 mL/min. The purified fractions of peptoids and lipopeptoids were later stored as aliquots at −20°C until further analysis.

[6] = Nile red fluorescence (~10 nM NR in water), lipopeptoids 2.5 × 10^-2 to 1 wt.%, excitation 552 nm, peak around 610 nm, inflection in emission intensity
[7] = PA01, MH broth microdilution (CLSI M07-A10), ~5 × 10^5 CFU/mL, overnight 37°C, OD 600 nm, MIC = concentration with OD halfway between minimum and maximum, sigmoidal fit ± SD, n = 3 or more, maximum tested 100 μM
[8] = MH broth microdilution (CLSI M07-A10), ~5 × 10^5 CFU/mL, overnight 37°C, OD 600 nm, MIC = concentration with OD halfway between minimum and maximum, sigmoidal fit ± SD, n = 3 or more, maximum tested 100 μM

SMILES	CAC [1, 6]	Antimicrobial activity (MIC) P. aeruginosa [2, 7] [µM]	Antimicrobial activity (MIC) E. coli [3, 8] [µM]	Antimicrobial activity (MIC) S. aureus [4, 8] [µM]	elution ACN % (RP-HPLC retention) [5] [ACN %]	Antimicrobial activity (MIC) P. aeruginosa [2] [µM]	Antimicrobial activity (MIC) E. coli [3] [µM]	Antimicrobial activity (MIC) S. aureus [4] [µM]	Hydrodynamic radius RH (DLS) [nm]	CAC ([1]; Nile red fluorescence in water, CAC expressed in mg/mL) [mg/mL]
CCCCCCCCC(=O)NCCOCCOCC(=O)N(CCCCN)CC(=O)N(CC(=O)N(CC(=O)N(CCCCN)CC(=O)N(CC(=O)N(CC(=O)N(CCCCN)CC(=O)N(CCCCN)CC(N)=O)[C@@H](C)c1ccccc1)[C@@H](C)c1ccccc1)[C@@H](C)c1ccccc1)[C@@H](C)c1ccccc1 [C8-EG2-(kss)2-kk] ({Nonanoyl-AEEA}-[Nlys][Nspe][Nspe][Nlys][Nspe][Nspe][Nlys][Nlys]-NH2)	200 ± 37 µM	13 ± 3	18 ± 3	9 ± 1	–	–	–	–	–	–
CCCCCCCCCCCC(=O)NCCOCCOCC(=O)N(CCCCN)CC(=O)N(CC(=O)N(CC(=O)N(CCCCN)CC(=O)N(CC(=O)N(CC(=O)N(CCCCN)CC(=O)N(CCCCN)CC(N)=O)[C@@H](C)c1ccccc1)[C@@H](C)c1ccccc1)[C@@H](C)c1ccccc1)[C@@H](C)c1ccccc1 [C11-EG2-(kss)2-kk] ({Lauroyl-AEEA}-[Nlys][Nspe][Nspe][Nlys][Nspe][Nspe][Nlys][Nlys]-NH2)	198 µM and 200 ± 17 µM	–	–	–	52	–	–	–	–	–
CCCCCCCCCCCCCCCC(=O)NCCOCCOCC(=O)N(CCCCN)CC(=O)N(CC(=O)N(CC(=O)N(CCCCN)CC(=O)N(CC(=O)N(CC(=O)N(CCCCN)CC(=O)N(CC(=O)N(CC(=O)N(CCCCN)CC(=O)N(CC(=O)N(CC(=O)N(CCCCN)CC(=O)N(CCCCN)CC(N)=O)[C@@H](C)c1ccccc1)[C@@H](C)c1ccccc1)[C@@H](C)c1ccccc1)[C@@H](C)c1ccccc1)[C@@H](C)c1ccccc1)[C@@H](C)c1ccccc1)[C@@H](C)c1ccccc1)[C@@H](C)c1ccccc1 [C15-EG2-(kss)4-kk] ({Palmitoyl-AEEA}-[Nlys][Nspe][Nspe][Nlys][Nspe][Nspe][Nlys][Nspe][Nspe][Nlys][Nspe][Nspe][Nlys][Nlys]-NH2)	–	–	–	–	–	>100	44 ± 5	36 ± 5	45	–
CCCCCCCCCCCC(=O)NCCOCCOCC(=O)N(CCCCN)CC(=O)N(CC(=O)N(CC(=O)N(CCCCN)CC(=O)N(CC(=O)N(CC(=O)N(CCCCN)CC(=O)N(CC(=O)N(CC(=O)N(CCCCN)CC(=O)N(CCCCN)CC(N)=O)[C@@H](C)c1ccccc1)[C@@H](C)c1ccccc1)[C@@H](C)c1ccccc1)[C@@H](C)c1ccccc1)[C@@H](C)c1ccccc1)[C@@H](C)c1ccccc1 [C11-EG2-(kss)3-kk] ({Lauroyl-AEEA}-[Nlys][Nspe][Nspe][Nlys][Nspe][Nspe][Nlys][Nspe][Nspe][Nlys][Nlys]-NH2)	310 ± 38 µM	15 ± 0.4	3 ± 0.2	1 ± 0.1	54	–	–	–	–	0.52
CCCCCCCCCCCCCCCC(=O)N(CCCCN)CC(=O)N(CC(=O)N(CC(=O)N(CCCCN)CC(=O)N(CC(=O)N(CC(=O)N(CCCCN)CC(=O)N(CC(=O)N(CC(=O)N(CCCCN)CC(=O)N(CC(=O)N(CC(=O)N(CCCCN)CC(=O)N(CCCCN)CC(N)=O)[C@@H](C)c1ccccc1)[C@@H](C)c1ccccc1)[C@@H](C)c1ccccc1)[C@@H](C)c1ccccc1)[C@@H](C)c1ccccc1)[C@@H](C)c1ccccc1)[C@@H](C)c1ccccc1)[C@@H](C)c1ccccc1 [C15-(kss)4-kk] (Palmitoyl-[Nlys][Nspe][Nspe][Nlys][Nspe][Nspe][Nlys][Nspe][Nspe][Nlys][Nspe][Nspe][Nlys][Nlys]-NH2)	304 µM and 300 ± 25 µM	–	–	–	66	–	–	–	–	–
CCCCCCCCC(=O)NCCOCCOCC(=O)N(CC(=O)N(CCCCN)CC(=O)N(CC(=O)N(CCCCN)CC(=O)N(CC(=O)N(CCCCN)CC(=O)N(CCCC)CC(=O)N(CCCCN)CC(N)=O)Cc1cccc2ccccc12)Cc1ccc(C)cc1)Cc1cccc2ccccc12 [C8-EG2-kykbk] ({Nonanoyl-AEEA}-[N(1-naphthylmethyl)Gly][Nlys][N(4-MeBn)Gly][Nlys][N(1-naphthylmethyl)Gly][Nlys][NBuGly][Nlys]-NH2)	1900 ± 200 µM	15 ± 3	11 ± 4	2 ± 0.2	–	–	–	–	–	–
CCCCCCCCC(=O)NCCOCCOCC(=O)N(CC(=O)N(CC(=O)N(CC(=O)N(CCCC)CC(=O)N(CCCCN)CC(=O)N(CCCCN)CC(=O)N(CCCCN)CC(=O)N(CCCCN)CC(=O)N(CCCCN)CC(N)=O)Cc1cccc2ccccc12)Cc1ccc(C)cc1)Cc1cccc2ccccc12 [C8-EG2-5k] ({Nonanoyl-AEEA}-[N(1-naphthylmethyl)Gly][N(4-MeBn)Gly][N(1-naphthylmethyl)Gly][NBuGly][Nlys][Nlys][Nlys][Nlys][Nlys]-NH2)	1600 ± 390 µM	–	–	–	–	41 ± 2	74 ± 4	8 ± 0.3	–	–
CCCCCCCCC(=O)NCCOCCOCC(=O)N(CCCCN)CC(=O)N(CC(=O)N(CC(=O)N(CCCCN)CC(=O)N(CC(=O)N(CC(=O)N(CCCCN)CC(=O)N(CC(=O)N(CC(=O)N(CCCCN)CC(=O)N(CCCCN)CC(N)=O)[C@@H](C)c1ccccc1)[C@@H](C)c1ccccc1)[C@@H](C)c1ccccc1)[C@@H](C)c1ccccc1)[C@@H](C)c1ccccc1)[C@@H](C)c1ccccc1 [C8-EG2-(kss)3-kk] ({Nonanoyl-AEEA}-[Nlys][Nspe][Nspe][Nlys][Nspe][Nspe][Nlys][Nspe][Nspe][Nlys][Nlys]-NH2)	270 ± 30 µM	6 ± 2	2 ± 0.3	3 ± 1	–	–	–	–	–	–
CCCCCCCCC(=O)NCCOCCOCC(=O)N(CC(=O)N(CC(=O)N(CC(=O)N(CCCC)CC(=O)N(CCCCN)CC(=O)N(CCCCN)CC(=O)N(CCCCN)CC(=O)N(CCCCN)CC(N)=O)Cc1cccc2ccccc12)Cc1ccc(C)cc1)Cc1cccc2ccccc12 [C8-EG2-4k] ({Nonanoyl-AEEA}-[N(1-naphthylmethyl)Gly][N(4-MeBn)Gly][N(1-naphthylmethyl)Gly][NBuGly][Nlys][Nlys][Nlys][Nlys]-NH2)	2500 ± 350 µM	16 ± 2	17 ± 1	18 ± 3	–	–	–	–	–	–
C[C@@H](c1ccccc1)N(CC(N)=O)C(=O)CN(C(=O)CN(CCCCN)C(=O)CN(C(=O)CN(C(=O)CN(CCCCN)C(=O)CN(C(=O)CN(C(=O)CN(CCCCN)C(=O)CN(C(=O)CN(C(=O)CNCCCCN)[C@@H](C)c1ccccc1)[C@@H](C)c1ccccc1)[C@@H](C)c1ccccc1)[C@@H](C)c1ccccc1)[C@@H](C)c1ccccc1)[C@@H](C)c1ccccc1)[C@@H](C)c1ccccc1 [(kss)4, reference compound] (H-[Nlys][Nspe][Nspe][Nlys][Nspe][Nspe][Nlys][Nspe][Nspe][Nlys][Nspe][Nspe]-NH2)	–	16 ± 0.3	6 ± 0.4	4 ± 0.3	–	–	–	–	–	–
